This is an account of results in patent publication US6551993B1, “Partial agonists at the glycine modulatory site of the NMDA receptor for treating cognitive dysfunction” (Thomas Jefferson University, priority 1999, dated 2003).

Holding throughout (format): in vivo, cynomolgus monkeys (Macaca fascicularis)
Data set [1] concerns chronic low dose MPTP-treated monkeys. As to the kind of experiment: spatial delayed response (DR) task. The source says: (§1) Four adult male cynomolgus monkeys (Macaca fascicularis) weighing 5.0-8.0 kg at the beginning of testing were used. All animals had prior behavioral testing experience and had stable cognitive deficits as a result of prior MPTP administration. These animals had previously been used in other pharmacological studies (Schneider J S, Tinker J P, Van Velson M, Menzaghi F, Lloyd G K. Nicotinic acetylcholine receptor agonist SIB-1508Y improves cognitive functioning in chronic low dose MPTP-treated monkeys. J Pharmacol Exp Ther 290: In Press, 1999) but had received no drug treatments for at least 6 mos. prior to the start of this study. This study was approved by the Institutional Animal Care and Use Committee at Thomas Jefferson University and performed in accordance with the NIH Guide for the Care and Use of Laboratory Animals.
(§2) Three of the four animals were tested in a modified Wisconsin General Test Apparatus (WGTA) (Schneider and Kovelowski, 1990); one animal performed computer automated tasks while seated in front of a touch sensitive computer monitor located in a darkened sound-attenuated cubicle. All monkeys performed a spatial delayed response (DR) task, a variable delayed response task (VDR) and a visual discrimination (VD) task.
(§3) The monkeys that performed in the WGTA sat in a restraining chair situated in a sound-attenuating chamber with background masking noise, behind an opaque screen that when raised, allowed access to a sliding tray. The tray contained recessed food wells and identical sliding red Plexiglas covers that served as stimulus plaques that could be displaced by the animal to obtain rewards (raisins, dried fruit, marshmallows). The monkeys were trained to retrieve food from one of the wells after observing the experimenter bait a well. Right and left wells were baited in a balanced order. Each daily session consisted of 30 trials. For VDR testing, five different delay lengths (2, 5, 10, 20 and 30 secs.) were randomly distributed in blocks of trials over the 40 trials that made up a daily testing session. For VD testing, monkeys were trained to discriminate between two patterns (a cross and a horizontal bar) on otherwise identical Plexiglas covers. The position of the positive stimulus (cross) over the left or right food well varied pseudorandomly. The cover had to be displaced in order to retrieve reward from the recessed food well beneath the cover. A test session consisted of 30 trials. Animals were food deprived overnight prior to testing the next day.
(§4) The monkey that performed the computer automated tasks sat in a restraining chair situated in a sound-attenuating chamber with background masking noise, and faced a touch sensitive computer screen with a lever located beneath it. The animal initiated a DR or VDR trial by holding down the lever for one to three seconds. This caused the cue, a filled white circle one inch in diameter, to appear on the right or left side of the screen for two seconds. The cue was then extinguished for a delay period (five seconds for DR; 2, 5, 10, 20, and 30 secs. for VDR) and then identical left and right choice stimuli (filled red circles, one inch in diameter) were presented. The monkey was rewarded with a fruit flavored drink from an automatic dispenser if it touched the response light located on the same side as where the cue appeared. Side of cue presentation was counter-balanced and left/right rewards were distributed pseudorandomly over the 30 trials (40 trials for VDR) that made up a daily testing session. This animal was tested in the morning and fluid deprived overnight prior to testing.
(§5) Animals initially received low doses of MPTP for periods of up to 178 days until stable cognitive deficits (consistent performance deficits of at least 15% on DR) were observed (Schneider et al., 1999). These animals had not received any MPTP for at least 9 months prior to the start of this study. […]

Data set [2] has the same test system. As to the kind of experiment: variable delayed response (VDR) task.
Description: as §1, §2, §3, §4, §5

For data set [3] the test system is unchanged. Briefly: visual discrimination (VD) task.
Description: as §1, §2
as §3, with “A test session consisted of 30 trials. Animals were food deprived overnight prior to testing the next day.” left out
Animals initially received low doses of MPTP for periods of up to 178 days until stable cognitive deficits (consistent performance deficits of at least 15% on DR) were observed (Schneider et al., 1999). […] Drug effects were determined for D-cycloserine and MK-801 (Research Biochemicals International, Natick, M A) at doses of 100, 320, 1,000, and 8,000 μg/kg and 10, 20 or 32 μg/kg, respectively. […]

Data set [4] shares this test system. As to the kind of experiment: motor functioning during visual discrimination testing.

Entries after “also recorded” stand apart in the source; their conditions may differ.

Take `N[C@@H]1CONC1=O` [D-cycloserine]: the DR performance result is listed as “Neither the low (100 μg/kg) nor high (8,000 μg/kg) doses of D-cycloserine had any effect” in data set [1] (100 μg/kg i.m., approx. 30 min before test, vs. saline); “significantly improving task performance” in data set [1] (320 μg/kg i.m., approx. 30 min before test, vs. saline (t=6.73, p<0.01)); “significantly improving task performance” in data set [1] (1,000 μg/kg i.m., approx. 30 min before test, vs. saline (t=3.76, p<0.05)); “Neither the low (100 μg/kg) nor high (8,000 μg/kg) doses of D-cycloserine had any effect; also recorded: neither improvement nor further disruption” in data set [1] (8,000 μg/kg i.m., approx. 30 min before test, vs. saline). Moreover, in data set [1] (dose response 100 to 1000 μg/kg i.m., 4 animals, FIG. 1A), the “MPTP-induced DR performance deficit” value is “at least partially corrected”. Further, the VDR performance entry in data set [2] (100 μg/kg i.m., all delays (2, 5, 10, 20, 30 sec)) was “had no effects”; in data set [2] (320 μg/kg i.m., at 2, 5, and 20 sec. delays), “significantly improved performance”; in data set [2] (1,000 μg/kg i.m., at 2, 5, and 10 sec delays), “significantly improved performance”; in data set [2] (8,000 μg/kg i.m.) it was “neither improvement nor further disruption”; in data set [2] (30 sec. delay, any dose), “None of the doses of D-cycloserine improved performance”; in data set [2] (best (most facilitating) dose for each animal vs. saline, FIG. 1B), “significantly improved performance at all but the longest delay”. Moreover, the VD performance result in data set [3] (8,000 μg/kg i.m., all animals, p<0.01 vs. saline, FIG. 2) is on record as “significantly disrupted; also recorded: significantly impaired; also recorded: deficits induced in VD performance”; in data set [3] (100 to 1,000 μg/kg i.m.) it was “had no effects”. For the same compound, in data set [3] (low doses (10, 32 or 100 μg/kg)), the “deficits in VD performance” value is on record as “not with low doses”. The motor functioning entry in data set [4] (8,000 μg/kg i.m.) is “did not significantly impair motor functioning”.
Regarding `C[C@]12N[C@H](Cc3ccccc31)c1ccccc12` [MK-801], the DR performance entry in data set [1] (10-32 μg/kg i.m., vs. saline) is recorded as “had no effects”. For the same compound, the VD performance result in data set [3] (10-32 μg/kg i.m., all animals, p<0.01 vs. saline, FIG. 2) is “significantly disrupted; also recorded: significant impairment”. Further, in data set [4] (10-32 μg/kg i.m.), the motor functioning result is reported as “did not significantly impair motor functioning”.
